Data: patent US8202879B2, “Quinazoline derivatives having tyrosine kinase inhibitory activity” (Shionogi & Co., Ltd., priority 2005, dated 2012)
Where two headings read alike, the source gives them in different places.

Tests used:
BT-474 = assay: In vitro cell proliferation inhibition, WST assay; type: cell-based, human; details: BT-474 cells, cultured for 3 days, read-out: BT-474 (nM) proliferation inhibitory activity (IC50 value)
Experimental: Test of In Vitro Cell Proliferation Inhibition of Test Compound
As a human-derived cancer cell strain, BT-474 was used. Cells were all cultured in a 37° C., 5% CO2 incubator in a medium in which 10% bovine fetal serum (ICN) and 50 units ml penicillin/60 μg/ml streptomycin solution (GIBCO) were added to Dulbecco's Modified Essential Medium (DMEM, Nacalai Tesque, Inc).

HER2 = target: T1, HER2 (Homo sapiens, UniProt P04626); assay: Enzyme inhibitory activity on HER2 (time resolution fluorescence, biotinylated poly-Glu-Tyr substrate); type: biochemical; details: HER2 purified from insect cell expression system; ATP solution 290 μM; room temperature, 60 minutes
T1 construct: purchased Carna Biosciences, Inc; host or cells: insect cell expression system
T1 sequence (P04626 23-1255): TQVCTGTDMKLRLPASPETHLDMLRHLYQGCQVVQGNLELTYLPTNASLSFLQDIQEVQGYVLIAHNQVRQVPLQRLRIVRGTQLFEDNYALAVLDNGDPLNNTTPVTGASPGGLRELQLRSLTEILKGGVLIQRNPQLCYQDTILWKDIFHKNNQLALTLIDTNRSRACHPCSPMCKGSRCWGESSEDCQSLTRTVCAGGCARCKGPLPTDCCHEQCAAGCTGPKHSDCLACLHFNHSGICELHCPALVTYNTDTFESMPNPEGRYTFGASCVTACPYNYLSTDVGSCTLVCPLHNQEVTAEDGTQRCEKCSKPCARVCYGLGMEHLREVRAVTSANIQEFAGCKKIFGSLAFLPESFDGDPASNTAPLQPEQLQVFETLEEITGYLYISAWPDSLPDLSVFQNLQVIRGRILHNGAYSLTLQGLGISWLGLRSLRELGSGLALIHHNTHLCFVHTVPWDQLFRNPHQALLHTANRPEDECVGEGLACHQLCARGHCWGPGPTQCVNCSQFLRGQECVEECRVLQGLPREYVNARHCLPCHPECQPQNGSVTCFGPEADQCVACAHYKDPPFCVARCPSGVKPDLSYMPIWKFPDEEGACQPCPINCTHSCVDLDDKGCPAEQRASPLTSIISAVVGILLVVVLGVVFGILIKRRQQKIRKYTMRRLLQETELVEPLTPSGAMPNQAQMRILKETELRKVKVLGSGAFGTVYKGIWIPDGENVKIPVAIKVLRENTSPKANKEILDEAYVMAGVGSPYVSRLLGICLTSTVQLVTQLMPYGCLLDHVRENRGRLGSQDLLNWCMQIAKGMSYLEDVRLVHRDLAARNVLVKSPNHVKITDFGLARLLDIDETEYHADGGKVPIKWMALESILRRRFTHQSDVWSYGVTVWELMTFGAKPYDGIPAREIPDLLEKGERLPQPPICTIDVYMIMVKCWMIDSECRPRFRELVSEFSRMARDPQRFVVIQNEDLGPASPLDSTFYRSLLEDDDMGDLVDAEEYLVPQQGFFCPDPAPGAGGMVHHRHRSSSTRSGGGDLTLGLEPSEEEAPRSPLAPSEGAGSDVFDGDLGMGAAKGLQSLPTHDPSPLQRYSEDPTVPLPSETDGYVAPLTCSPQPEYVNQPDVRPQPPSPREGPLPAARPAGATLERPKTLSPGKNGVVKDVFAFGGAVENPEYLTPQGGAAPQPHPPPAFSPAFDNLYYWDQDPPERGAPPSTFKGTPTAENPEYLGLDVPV
Experimental: (§1) Enzyme Inhibitory Activity of Test Compound on EGFR and HER2
(§2) EGFR and HER2 purified from an insect cell expression system, and a biotinylated substrate (synthetic peptide of glutamic acid:tyrosine=4:1) were added to a 384-well plate with ATP added thereto, and an enzyme reaction was performed at room temperature. After completion of the enzyme reaction, an anti-phosphorylated tyrosine antibody labeled with europium and streptavidin labeled with alphycocyanine were added, and a phosphorylated tyrosine residue was quantified by a time resolution fluorescence method.
(§3) A test compound was adjusted to 10 mM using DMSO.
(§4) Further, using 10% DMSO solution, a 1 mM solution was prepared, and this was regarded as a maximum concentration point.
(§5) As a dilution series, a 4-fold dilution series was prepared to a 10 stage.
(§6) As a buffer, TBS containing 10 mM MgCl2, 5 mM MnCl2, 0.2 mM Na3VO4, and 0.1% BSA was used.
(§7) As EGFR and HER2 enzymes, those purified from an insect cell expression system were purchased from Carna Biosciences, Inc.
HER2 kinase was adjusted to 1000 ng/ml using a buffer.
(§8) As a substrate, biotinylated poly-Glu-Tyr (4:1, manufactured by CISbio) was used. A concentration was adjusted to 3.125 μg/ml using the above buffer.
An ATP concentration on study of the HER2 enzyme was adjusted to 290 μM.
(§9) For preparing a detection reagent, TBS containing 30 mM EDTA, 0.8M KF and 0.1% BSA was used.
(§10) An anti-phosphorylated tyrosine antibody labeled with europium, PT-66K (CISbio) was adjusted to 195 ng/ml, and streptavidin labeled with alphycocyanine, SA-XL (CISbio) was adjusted to 5 μg/ml.
(§11) As an assay plate, a 384-well plate was used. Per one well, 1.1 μl of a test compound, 4 μl of a substrate solution, and 4 μl of an enzyme solution were added, and 2 μl of an ATP solution was added to initiate an enzyme reaction. The enzyme reaction was performed at room temperature for 60 minutes, and 10 μl of a detection reagent was added to complete the reaction. One hour after completion of the reaction, time resolution fluorescent measurement was performed.

EGFR = target: T2, EGFR (Homo sapiens, UniProt P00533); assay: Enzyme inhibitory activity on EGFR (time resolution fluorescence, biotinylated poly-Glu-Tyr substrate); type: biochemical; details: EGFR purified from insect cell expression system; ATP solution 125 μM; room temperature, 60 minutes
T2 construct: purchased Carna Biosciences, Inc; host or cells: insect cell expression system
T2 sequence (P00533 25-1210): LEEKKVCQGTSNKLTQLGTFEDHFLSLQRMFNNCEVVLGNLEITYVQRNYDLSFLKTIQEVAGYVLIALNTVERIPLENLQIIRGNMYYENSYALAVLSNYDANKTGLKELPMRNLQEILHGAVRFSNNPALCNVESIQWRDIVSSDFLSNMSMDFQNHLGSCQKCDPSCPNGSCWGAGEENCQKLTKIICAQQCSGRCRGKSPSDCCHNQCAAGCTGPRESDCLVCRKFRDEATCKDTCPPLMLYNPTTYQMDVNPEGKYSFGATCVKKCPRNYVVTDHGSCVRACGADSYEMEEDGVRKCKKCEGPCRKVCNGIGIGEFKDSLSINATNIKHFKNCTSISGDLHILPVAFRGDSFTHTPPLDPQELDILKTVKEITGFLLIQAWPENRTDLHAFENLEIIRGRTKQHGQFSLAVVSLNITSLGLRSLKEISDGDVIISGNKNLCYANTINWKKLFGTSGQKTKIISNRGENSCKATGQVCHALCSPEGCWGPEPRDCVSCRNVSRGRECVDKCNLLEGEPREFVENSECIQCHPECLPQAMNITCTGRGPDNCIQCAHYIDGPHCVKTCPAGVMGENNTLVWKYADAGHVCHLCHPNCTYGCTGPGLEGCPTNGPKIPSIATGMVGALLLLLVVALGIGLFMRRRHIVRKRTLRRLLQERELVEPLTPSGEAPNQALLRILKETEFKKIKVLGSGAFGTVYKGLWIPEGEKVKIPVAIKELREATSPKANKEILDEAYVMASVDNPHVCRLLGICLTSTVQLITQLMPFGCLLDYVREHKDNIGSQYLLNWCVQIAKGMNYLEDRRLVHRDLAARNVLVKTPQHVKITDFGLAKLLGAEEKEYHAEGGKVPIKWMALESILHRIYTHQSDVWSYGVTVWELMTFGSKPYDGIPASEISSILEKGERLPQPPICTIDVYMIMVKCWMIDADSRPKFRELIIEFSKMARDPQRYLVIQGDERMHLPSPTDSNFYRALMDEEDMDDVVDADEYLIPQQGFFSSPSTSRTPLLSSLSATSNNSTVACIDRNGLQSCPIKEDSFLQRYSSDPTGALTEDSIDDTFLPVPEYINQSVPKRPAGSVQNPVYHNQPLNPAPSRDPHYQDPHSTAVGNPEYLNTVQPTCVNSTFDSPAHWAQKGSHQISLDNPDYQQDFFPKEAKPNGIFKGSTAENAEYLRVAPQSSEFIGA
Experimental: as §1, §2, §3, §4, §5, §6, §7
An EGFR enzyme solution was adjusted to 250 ng/ml using a buffer.
as §8
An ATP concentration on study of the EGFR enzyme was adjusted to 125 μM using the buffer.
as §9, §10, §11

IC50 (BT-474) [nM] | IC50 (HER2) [nM] | IC50 (EGFR) [nM] | IC50 (BT-474; Homo sapiens, BT-474, 72 h) [nM] | Structure (SMILES)
12 | 22 | 22 | – | CC#CC(=NOCCNCC(C)CO)c1ccc2ncnc(Nc3ccc(OCc4cccc(F)c4)c(Cl)c3)c2c1 (stereo not drawn) [VIII-62]
– | 9.2 | 9.6 | 13 | CC#C/C(=N\OCCNC[C@H](C)CO)c1ccc2ncnc(Nc3ccc(OCc4cccc(F)c4)c(Cl)c3)c2c1 [VIII-63]
30 | 98 | 97 | – | CC#C/C(=N\OCCN(CC)CCOC)c1ccc2ncnc(Nc3ccc(OCc4cccc(F)c4)c(Cl)c3)c2c1 [VIII-65]
32 | 14 | 16 | – | CC#C/C(=N\OCCCNC)c1ccc2ncnc(Nc3ccc(OCc4cccc(F)c4)c(Cl)c3)c2c1 [VIII-67]
41 | 25 | 19 | – | CC#C/C(=N\OC1CNC1)c1ccc2ncnc(Nc3ccc(OCc4cccc(F)c4)c(Cl)c3)c2c1 [VIII-68]
– | 28 | 43 | 16 | CC#C/C(=N\OCCN1CCC[C@@H]1CO)c1ccc2ncnc(Nc3ccc(OCc4cccc(F)c4)c(Cl)c3)c2c1 [VIII-69]
7 | 31 | 63 | – | CC#CC(=NOCCN1CCC(NC(C)=O)C1)c1ccc2ncnc(Nc3ccc(OCc4cccc(F)c4)c(Cl)c3)c2c1 (stereo not drawn) [VIII-70]
– | 199 | 130 | 17 | CC#C/C(=N\OCCN1CC[C@@H](OC(N)=O)C1)c1ccc2ncnc(Nc3ccc(OCc4cccc(F)c4)c(Cl)c3)c2c1 [VIII-71]
21 | 11 | 6.3 | – | CC#C/C(=N\OC[C@@H]1CCCN1)c1ccc2ncnc(Nc3ccc(OCc4cccc(F)c4)c(Cl)c3)c2c1 [VIII-72]
12 | 199 | 275 | – | CC#C/C(=N\OC[C@@H]1CCCN1CC#N)c1ccc2ncnc(Nc3ccc(OCc4cccc(F)c4)c(Cl)c3)c2c1 [VIII-73]
– | 150 | 164 | 28 | CC#C/C(=N\OC[C@@H]1CCCN1CCOC)c1ccc2ncnc(Nc3ccc(OCc4cccc(F)c4)c(Cl)c3)c2c1 [VIII-74]
22 | 34 | 50 | – | CC#C/C(=N\OC[C@@H]1CCCN1C)c1ccc2ncnc(Nc3ccc(OCc4cccc(F)c4)c(Cl)c3)c2c1 [VIII-75]
– | 216 | 162 | 12 | CC#C/C(=N\OC[C@H]1NC(=O)O[C@@H]1C)c1ccc2ncnc(Nc3ccc(OCc4cccc(F)c4)c(Cl)c3)c2c1 [VIII-76]
11 | 246 | 217 | – | CC#CC(=NOCC1NC(=O)OC1C)c1ccc2ncnc(Nc3ccc(OCc4cccc(F)c4)c(Cl)c3)c2c1 (stereo not drawn) [VIII-77]
35 | 410 | 111 | – | CC#CC(=NOCC1CCC(=O)N1)c1ccc2ncnc(Nc3ccc(OCc4cccc(F)c4)c(Cl)c3)c2c1 (stereo not drawn) [VIII-78]
35 | 29 | 23 | – | CC#CC(=NOC1CNC(CO)C1)c1ccc2ncnc(Nc3ccc(OCc4cccc(F)c4)c(Cl)c3)c2c1 (stereo not drawn) [VIII-80]
– | 17.7 | 9.8 | 8 | CC#C/C(=N\OC[C@@H]1C[C@@H](O)CN1)c1ccc2ncnc(Nc3ccc(OCc4cccc(F)c4)c(Cl)c3)c2c1 [VIII-81]
16 | 7.5 | 7.6 | – | CC#C/C(=N\OC[C@@H]1C[C@H](O)CN1)c1ccc2ncnc(Nc3ccc(OCc4cccc(F)c4)c(Cl)c3)c2c1 [VIII-82]
13 | 121 | 164 | – | CC#C/C(=N\OC[C@@H]1CCC(=O)N1)c1ccc2ncnc(Nc3ccc(OCc4cccc(F)c4)c(Cl)c3)c2c1 [VIII-83]
28 | 47 | 44 | – | CC#C/C(=N\OC[C@@H]1C[C@@H](NC(C)=O)CN1)c1ccc2ncnc(Nc3ccc(OCc4cccc(F)c4)c(Cl)c3)c2c1 [VIII-84]

IC50 (BT-474) [nM] | IC50 (HER2) [nM] | IC50 (EGFR) [nM] | IC50 (BT-474; Homo sapiens, BT-474, 72 h) [nM] | Structure (SMILES)
11 | 33 | 32 | – | CC#C/C(=N\OC[C@H]1CCCN1)c1ccc2ncnc(Nc3ccc(OCc4cccc(F)c4)c(Cl)c3)c2c1 [VIII-85]
– | 304 | 244 | 13 | CC#C/C(=N\OC[C@H]1CCCN1CC#N)c1ccc2ncnc(Nc3ccc(OCc4cccc(F)c4)c(Cl)c3)c2c1 [VIII-86]
6 | 476 | 642 | – | CC#C/C(=N\OC[C@H]1CCCN1CC(=O)OC)c1ccc2ncnc(Nc3ccc(OCc4cccc(F)c4)c(Cl)c3)c2c1 [VIII-87]
12 | 56 | 47 | – | CC#C/C(=N\OC[C@H]1CCCN1CC(=O)O)c1ccc2ncnc(Nc3ccc(OCc4cccc(F)c4)c(Cl)c3)c2c1 [VIII-88]
– | 24 | 27 | 25 | CC#C/C(=N\OC[C@@H]1CCCN1CC(=O)O)c1ccc2ncnc(Nc3ccc(OCc4cccc(F)c4)c(Cl)c3)c2c1 [VIII-89]
9 | 97 | 93 | – | CC#C/C(=N\OC[C@H]1CCCN1CCO)c1ccc2ncnc(Nc3ccc(OCc4cccc(F)c4)c(Cl)c3)c2c1 [VIII-90]
24 | 83 | 74 | – | CC#C/C(=N\OC[C@H]1CCCN1C)c1ccc2ncnc(Nc3ccc(OCc4cccc(F)c4)c(Cl)c3)c2c1 [VIII-91]
29 | 36 | 32 | – | CC#C/C(=N\O[C@H]1CN[C@H](CO)C1)c1ccc2ncnc(Nc3ccc(OCc4cccc(F)c4)c(Cl)c3)c2c1 [VIII-92]
– | 321 | 453 | 38 | CC#C/C(=N\OCCN1C[C@@H](C)O[C@@H](C)C1)c1ccc2ncnc(Nc3ccc(OCc4cccc(F)c4)c(Cl)c3)c2c1 [VIII-93]
– | 150 | 213 | 26 | CC#C/C(=N\OCCN1CCNC(=O)C1)c1ccc2ncnc(Nc3ccc(OCc4cccc(F)c4)c(Cl)c3)c2c1 [VIII-94]
25 | 176 | 209 | – | CC#C/C(=N\OCCN1CCS(=O)(=O)CC1)c1ccc2ncnc(Nc3ccc(OCc4cccc(F)c4)c(Cl)c3)c2c1 [VIII-95]
30 | 20 | 20 | – | CC#C/C(=N\OCCN1CCN(C)CC1)c1ccc2ncnc(Nc3ccc(OCc4cccc(F)c4)c(Cl)c3)c2c1 [VIII-96]
11 | 22 | 19 | – | CC#C/C(=N\OCCN1CCC(O)CC1)c1ccc2ncnc(Nc3ccc(OCc4cccc(F)c4)c(Cl)c3)c2c1 [VIII-97]
65 | 21 | 21 | – | CC#C/C(=N\OCCN1CCC(N)CC1)c1ccc2ncnc(Nc3ccc(OCc4cccc(F)c4)c(Cl)c3)c2c1 [VIII-98]
– | 84 | 84 | 24 | CC#C/C(=N\OCCN1CCC(NC(C)=O)CC1)c1ccc2ncnc(Nc3ccc(OCc4cccc(F)c4)c(Cl)c3)c2c1 [VIII-99]
– | 203 | 208 | 16 | CC#C/C(=N\OCCN1CCC(NS(C)(=O)=O)CC1)c1ccc2ncnc(Nc3ccc(OCc4cccc(F)c4)c(Cl)c3)c2c1 [VIII-100]
12 | 129 | 56 | – | CC#C/C(=N\OC[C@@H]1COCCN1)c1ccc2ncnc(Nc3ccc(OCc4cccc(F)c4)c(Cl)c3)c2c1 [VIII-101]
7 | 121 | 72 | – | CC#C/C(=N\OC[C@H]1COCCN1)c1ccc2ncnc(Nc3ccc(OCc4cccc(F)c4)c(Cl)c3)c2c1 [VIII-102]
– | 5.6 | 3.9 | 11 | CC#CC(=NOCC1CNCCN1)c1ccc2ncnc(Nc3ccc(OCc4cccc(F)c4)c(Cl)c3)c2c1 (stereo not drawn) [VIII-103]
60 | 202 | 238 | – | CC#C/C(=N\OC[C@@H]1COCCN1CC#N)c1ccc2ncnc(Nc3ccc(OCc4cccc(F)c4)c(Cl)c3)c2c1 [VIII-104]
